The values that follow come from patent publication US8937050B2, “Methods and compositions for treatment of autism” (The Johns Hopkins University, priority 2011, dated 2015).

For one test, the system named is HSF1. The following applies: luciferase reporter system; cited from earlier work. (In general: Reporter assays use an easily measured gene product as a stand-in for the process of interest.)
The next test concerns autism. The test can be described thus: Placebo-controlled study of HU in male adolescents and adults with autism. Type of test: in vivo, human. The following applies: HU at low doses. Here is the method: Administration of hydroxyurea (HU) in adolescents and adults with autism is evaluated in a study designed to ensure safety and obtain efficacy data. HU is chosen based on its effects on the stress proteome in vitro and based on clinical observations of improvements (e.g., social responsiveness) in persons with autism during fever. (Curran et al., 2007).
The hybrid design of the study incorporates double masking, placebo control, and randomization to enhance the robustness of early outcome data. […]
Forty-five male adolescents (13-18 years) and adults (19-30 years) are randomly assigned to receive either HU (n=30, at 2 month escalating intervals: 10, 15 and 20 mg/kg/day) or placebo (n=15). Quantitative autism traits are assessed using the ADI-R, Social Responsiveness Scale (child and adult forms), Clinical Global Impression Scale (CGI) and Autism Behavior Checklist (ABC). […]
The effect of HU in autism is evaluated to ensure safety and efficacy (Piantadosi et al., 2005). […]
Male adolescent (n=15, ages 13-18 years) and adults (n=30, ages 19-30) are randomly assigned to receive either HU (at 2 month escalating intervals: […]) or placebo. Quantitative autism traits are assessed using the ADI-R, Social Responsiveness Scale (child and adult forms) (Constantino et al., 2005), Clinical Global Impressions Scale (CGI), and Autism Behavior Checklist (ABC). […]

In test [1] the test system is sickle cell disease (SCD). The following applies: cited from earlier work.
The next test has as its system ABCD2. The following applies: Li et al., 2002; cited from earlier work.

Regarding `C[S@@+]([O-])CCCCN=C=S` [SFN, 1-isothiocyanato-4R-(methylsulfinyl)butane], the “HSF1 mediated transcription of the reporter” value in the test on HSF1 was “activated”. As to `NC(=O)NO` [HU, hydroxyurea], the “clinical function in adolescents and adults with well characterized autism” value in the test with autism is “improved clinical function”. The “cognitive function in children with SCD” value in test [1] (Puffer et al., 2007) is listed as “improve cognitive function”. Further, the incidence of strokes entry in test [1] (SCD) is “decreases”.

Consider 4-phenylbutyrate [4PBA], for which the “expression of ABCD2” value in the test with ABCD2 is “increased”.
